From ChEMBL document CHEMBL1909046, “DrugMatrix in vitro pharmacology data”

What was measured:
[1] = target: T1, Calcitonin receptor (Homo sapiens, UniProt P30988); format: cell membranes, Membrane; settings: t47d; also: in other assays of this panel Not Active means under 50% inhibition at 10 µM
T1 sequence (P30988 whole entry): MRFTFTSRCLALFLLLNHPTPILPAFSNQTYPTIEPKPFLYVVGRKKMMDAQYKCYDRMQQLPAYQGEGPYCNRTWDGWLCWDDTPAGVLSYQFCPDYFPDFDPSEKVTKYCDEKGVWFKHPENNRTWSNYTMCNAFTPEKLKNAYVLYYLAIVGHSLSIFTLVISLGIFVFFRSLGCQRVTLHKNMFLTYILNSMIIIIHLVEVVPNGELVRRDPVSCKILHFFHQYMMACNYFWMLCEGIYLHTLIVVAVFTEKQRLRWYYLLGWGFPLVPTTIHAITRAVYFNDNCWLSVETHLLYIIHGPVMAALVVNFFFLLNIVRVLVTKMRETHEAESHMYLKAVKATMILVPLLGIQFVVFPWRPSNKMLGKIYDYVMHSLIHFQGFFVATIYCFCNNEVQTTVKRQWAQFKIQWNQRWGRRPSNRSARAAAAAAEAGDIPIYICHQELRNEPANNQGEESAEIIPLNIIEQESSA

[2] = target: T2, Muscarinic acetylcholine receptor M5 (Homo sapiens, UniProt P08912); format: cell membranes, CHO-K1, Membrane; settings: cho-k1; also: in other assays of this panel Not Active means under 50% inhibition at 10 µM
T2 sequence (P08912 whole entry): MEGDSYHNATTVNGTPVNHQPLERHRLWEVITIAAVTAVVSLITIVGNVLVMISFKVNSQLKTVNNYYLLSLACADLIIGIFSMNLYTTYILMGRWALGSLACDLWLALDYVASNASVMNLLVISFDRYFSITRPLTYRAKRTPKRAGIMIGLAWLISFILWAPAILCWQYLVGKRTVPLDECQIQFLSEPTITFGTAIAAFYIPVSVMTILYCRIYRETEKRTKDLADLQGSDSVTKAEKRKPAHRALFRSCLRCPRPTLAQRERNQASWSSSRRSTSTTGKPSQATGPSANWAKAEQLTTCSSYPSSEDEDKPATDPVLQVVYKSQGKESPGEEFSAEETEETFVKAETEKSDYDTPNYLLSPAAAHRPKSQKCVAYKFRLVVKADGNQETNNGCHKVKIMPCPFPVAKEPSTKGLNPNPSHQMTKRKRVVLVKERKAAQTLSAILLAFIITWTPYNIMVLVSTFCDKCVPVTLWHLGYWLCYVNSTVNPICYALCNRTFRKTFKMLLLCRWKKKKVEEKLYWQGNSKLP

[3] = target: Nitric oxide synthase 1 (Rattus norvegicus, UniProt P29476); format: tissue-based, Cerebellum; also: in other assays of this panel Not Active means under 50% inhibition at 10 µM
Sequence of Nitric oxide synthase 1 (P29476 whole entry): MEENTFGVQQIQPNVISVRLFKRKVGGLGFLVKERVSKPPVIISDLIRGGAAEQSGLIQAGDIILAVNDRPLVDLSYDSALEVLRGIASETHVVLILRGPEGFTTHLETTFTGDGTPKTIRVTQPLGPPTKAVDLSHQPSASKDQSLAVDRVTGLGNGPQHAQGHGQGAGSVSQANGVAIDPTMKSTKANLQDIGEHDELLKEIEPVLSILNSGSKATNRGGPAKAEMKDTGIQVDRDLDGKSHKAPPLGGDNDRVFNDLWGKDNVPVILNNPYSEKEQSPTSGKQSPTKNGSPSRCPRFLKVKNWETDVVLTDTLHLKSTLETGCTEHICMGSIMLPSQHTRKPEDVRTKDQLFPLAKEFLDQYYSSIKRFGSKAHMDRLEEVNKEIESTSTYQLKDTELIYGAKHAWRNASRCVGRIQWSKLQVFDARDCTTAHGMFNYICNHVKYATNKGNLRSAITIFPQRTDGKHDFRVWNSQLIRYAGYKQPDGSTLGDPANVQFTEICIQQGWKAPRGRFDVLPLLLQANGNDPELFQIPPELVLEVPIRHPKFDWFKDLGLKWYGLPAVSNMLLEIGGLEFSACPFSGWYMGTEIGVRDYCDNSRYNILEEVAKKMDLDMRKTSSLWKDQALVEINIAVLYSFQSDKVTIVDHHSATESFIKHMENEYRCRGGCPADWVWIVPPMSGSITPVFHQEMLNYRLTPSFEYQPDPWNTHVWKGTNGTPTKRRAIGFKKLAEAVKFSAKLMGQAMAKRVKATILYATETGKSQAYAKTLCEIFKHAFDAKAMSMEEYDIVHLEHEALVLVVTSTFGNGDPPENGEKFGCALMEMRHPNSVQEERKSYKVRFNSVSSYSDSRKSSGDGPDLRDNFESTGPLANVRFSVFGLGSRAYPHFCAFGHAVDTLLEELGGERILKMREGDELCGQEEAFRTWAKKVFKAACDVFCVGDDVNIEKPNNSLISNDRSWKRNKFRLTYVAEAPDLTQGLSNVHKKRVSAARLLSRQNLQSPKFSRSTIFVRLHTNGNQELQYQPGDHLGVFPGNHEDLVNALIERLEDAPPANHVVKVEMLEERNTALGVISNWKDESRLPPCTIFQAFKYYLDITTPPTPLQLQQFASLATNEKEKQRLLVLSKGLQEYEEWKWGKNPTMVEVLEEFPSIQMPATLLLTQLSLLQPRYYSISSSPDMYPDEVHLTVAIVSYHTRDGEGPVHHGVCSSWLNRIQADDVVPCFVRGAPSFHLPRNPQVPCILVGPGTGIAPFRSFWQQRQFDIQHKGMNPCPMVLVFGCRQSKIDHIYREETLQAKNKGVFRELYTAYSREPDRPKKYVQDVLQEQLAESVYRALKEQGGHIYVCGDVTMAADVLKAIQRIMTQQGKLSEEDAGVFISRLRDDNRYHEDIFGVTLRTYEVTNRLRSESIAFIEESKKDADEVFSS

[4] = target: T3, Nitric oxide synthase, inducible (Mus musculus, UniProt P29477); design: species or system Escherichia coli;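 also: inhibition of iNOS enzyme activity measured with L-arginine as substrate; in other assays of this panel Not Active means under 50% inhibition at 10 µM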
T3 sequence (P29477 whole entry): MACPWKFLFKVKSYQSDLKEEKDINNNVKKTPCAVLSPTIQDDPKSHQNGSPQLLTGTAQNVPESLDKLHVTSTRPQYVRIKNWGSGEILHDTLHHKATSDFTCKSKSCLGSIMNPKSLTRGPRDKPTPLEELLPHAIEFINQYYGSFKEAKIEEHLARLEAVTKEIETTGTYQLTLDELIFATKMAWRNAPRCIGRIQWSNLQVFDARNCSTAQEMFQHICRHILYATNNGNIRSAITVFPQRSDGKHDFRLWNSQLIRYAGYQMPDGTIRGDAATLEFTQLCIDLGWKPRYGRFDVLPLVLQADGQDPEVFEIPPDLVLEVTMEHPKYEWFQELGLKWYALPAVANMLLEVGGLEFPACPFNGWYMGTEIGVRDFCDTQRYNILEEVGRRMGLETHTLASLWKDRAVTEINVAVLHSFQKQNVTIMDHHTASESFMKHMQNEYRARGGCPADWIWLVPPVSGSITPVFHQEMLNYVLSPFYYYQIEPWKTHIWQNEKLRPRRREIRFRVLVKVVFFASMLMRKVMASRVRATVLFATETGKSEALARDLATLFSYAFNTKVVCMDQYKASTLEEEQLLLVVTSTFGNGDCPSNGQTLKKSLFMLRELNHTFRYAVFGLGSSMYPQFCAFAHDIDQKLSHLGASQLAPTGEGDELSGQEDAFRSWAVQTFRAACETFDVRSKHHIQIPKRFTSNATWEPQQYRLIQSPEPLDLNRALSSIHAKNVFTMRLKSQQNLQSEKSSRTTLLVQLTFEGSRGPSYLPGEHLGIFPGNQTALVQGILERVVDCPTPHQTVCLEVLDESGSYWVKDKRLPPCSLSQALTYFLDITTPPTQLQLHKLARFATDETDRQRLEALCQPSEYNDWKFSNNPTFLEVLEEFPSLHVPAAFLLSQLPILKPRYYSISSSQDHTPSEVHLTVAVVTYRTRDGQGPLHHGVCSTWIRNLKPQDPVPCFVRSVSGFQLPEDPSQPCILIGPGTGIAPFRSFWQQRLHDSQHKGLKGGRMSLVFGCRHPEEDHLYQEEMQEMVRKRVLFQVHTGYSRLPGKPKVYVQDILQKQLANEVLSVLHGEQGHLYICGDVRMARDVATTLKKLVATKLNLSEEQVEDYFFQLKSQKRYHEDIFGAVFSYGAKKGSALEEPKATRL

[5] = DRUGMATRIX: Phosphodiesterase PDE3 enzyme inhibition (substrate: [3H]cAMP + cAMP); format: tissue-based, Homo sapiens; settings: platelet, Not Active = under 50% inhibition at 10 µM
[6] = target: Epidermal growth factor receptor (Homo sapiens, UniProt P00533); experiment: DRUGMATRIX: Protein Tyrosine Kinase, EGF Receptor enzyme inhibition (substrate: Poly(Glu:Tyr)); format: cell-based, Insect cells; settings: Not Active = under 50% inhibition at 10 µM
Sequence of Epidermal growth factor receptor (P00533 whole entry): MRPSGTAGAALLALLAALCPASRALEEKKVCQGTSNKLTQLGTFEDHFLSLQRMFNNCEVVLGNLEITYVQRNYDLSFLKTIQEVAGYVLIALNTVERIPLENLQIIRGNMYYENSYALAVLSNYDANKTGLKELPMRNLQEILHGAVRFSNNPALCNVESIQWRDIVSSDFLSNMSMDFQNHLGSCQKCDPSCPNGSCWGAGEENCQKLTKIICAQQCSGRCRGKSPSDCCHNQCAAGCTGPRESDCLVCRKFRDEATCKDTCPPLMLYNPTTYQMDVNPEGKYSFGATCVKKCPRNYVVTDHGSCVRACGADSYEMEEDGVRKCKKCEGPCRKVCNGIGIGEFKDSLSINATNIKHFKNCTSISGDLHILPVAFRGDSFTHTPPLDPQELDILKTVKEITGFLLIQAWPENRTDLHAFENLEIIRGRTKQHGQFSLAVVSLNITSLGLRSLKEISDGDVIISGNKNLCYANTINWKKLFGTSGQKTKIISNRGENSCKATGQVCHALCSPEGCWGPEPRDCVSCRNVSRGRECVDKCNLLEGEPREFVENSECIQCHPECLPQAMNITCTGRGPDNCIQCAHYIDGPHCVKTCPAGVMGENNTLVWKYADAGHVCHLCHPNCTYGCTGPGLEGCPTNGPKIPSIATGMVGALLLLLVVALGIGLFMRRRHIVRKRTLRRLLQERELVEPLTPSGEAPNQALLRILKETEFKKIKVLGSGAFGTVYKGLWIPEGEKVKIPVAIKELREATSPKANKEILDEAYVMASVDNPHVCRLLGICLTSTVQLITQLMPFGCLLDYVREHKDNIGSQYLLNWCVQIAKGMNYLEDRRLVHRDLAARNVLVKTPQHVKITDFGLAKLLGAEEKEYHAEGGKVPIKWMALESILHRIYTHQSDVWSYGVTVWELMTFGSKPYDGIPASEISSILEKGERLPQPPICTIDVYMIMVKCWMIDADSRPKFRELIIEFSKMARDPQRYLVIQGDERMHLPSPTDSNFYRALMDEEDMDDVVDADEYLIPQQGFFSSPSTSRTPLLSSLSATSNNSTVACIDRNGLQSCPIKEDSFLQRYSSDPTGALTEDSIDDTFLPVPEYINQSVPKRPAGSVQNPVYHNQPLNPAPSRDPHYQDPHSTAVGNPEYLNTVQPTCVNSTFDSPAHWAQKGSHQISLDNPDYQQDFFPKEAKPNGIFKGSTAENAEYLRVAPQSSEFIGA

[7] = target: Cytochrome P450 2C19 (Homo sapiens, UniProt P33261); settings: bti-tn-5b1-4; also: in other assays of this panel Not Active means under 50% inhibition at 10 µM
Sequence of Cytochrome P450 2C19 (P33261 whole entry): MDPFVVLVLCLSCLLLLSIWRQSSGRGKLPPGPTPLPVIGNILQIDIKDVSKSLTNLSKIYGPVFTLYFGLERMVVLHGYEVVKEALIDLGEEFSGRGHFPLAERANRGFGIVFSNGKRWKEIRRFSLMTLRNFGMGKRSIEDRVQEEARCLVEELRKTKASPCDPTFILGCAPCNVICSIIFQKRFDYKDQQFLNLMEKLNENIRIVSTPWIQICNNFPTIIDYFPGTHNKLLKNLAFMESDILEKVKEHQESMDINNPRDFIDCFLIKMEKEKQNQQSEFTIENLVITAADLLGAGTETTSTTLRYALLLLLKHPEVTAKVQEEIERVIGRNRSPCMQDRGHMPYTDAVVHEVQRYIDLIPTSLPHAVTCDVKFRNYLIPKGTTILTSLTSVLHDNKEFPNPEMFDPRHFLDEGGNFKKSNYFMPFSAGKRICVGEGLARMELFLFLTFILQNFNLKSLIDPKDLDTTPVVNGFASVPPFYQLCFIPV

With `CCOc1nc2cccc(C(=O)O)c2n1Cc1ccc(-c2ccccc2-c2nnn[nH]2)cc1` the IC50 [1] was “Not Active”, the IC50 [2] was “Not Active” and the IC50 [3] was “Not Active”. For the same compound, the IC50 [4] was “Not Active”, the IC50 [5] was “Not Active” and the Ki [5] was “Not Active”. It also gave an IC50 ([6]; read-out: IC50) of 3.28 µM.
With `O=C(c1ccccc1F)N1CCC(Cc2ccccc2)CC1` the IC50 [1] was “Not Active”, the IC50 [2] was “Not Active” and the IC50 [3] was “Not Active”. For the same compound, the IC50 [4] was “Not Active”, the IC50 [5] was “Not Active” and the Ki [5] was “Not Active”. For the same compound, the IC50 ([6]; insect cells) was “Not Active”.
In the case of `NC12CC3CC(CC(C3)C1)C2` [AMANTADINE], the IC50 [1] is reported as “Not Active”, the IC50 [2] is reported as “Not Active” and the IC50 [3] is reported as “Not Active”. The IC50 [4] was “Not Active”, the IC50 [5] was “Not Active” and the Ki [5] was “Not Active”. The IC50 ([6]; insect cells) was “Not Active”.
With `CC(C)c1c(C(=O)Nc2ccccc2)c(-c2ccccc2)c(-c2ccc(F)cc2)n1CC[C@@H](O)C[C@@H](O)CC(=O)O` [ATORVASTATIN] the IC50 [1] was “Not Active”, the IC50 [2] was “Not Active” and the IC50 [3] was “Not Active”. For the same compound, the IC50 [4] was “Not Active”, the IC50 [5] was “Not Active” and the Ki [5] was “Not Active”. The IC50 ([6]; insect cells) was “Not Active”.
With `Cn1c(=O)c2c(ncn2C)n(C)c1=O` [CAFFEINE] the IC50 [1] was “Not Active”, the IC50 [2] was “Not Active” and the IC50 [3] was “Not Active”. For the same compound, the IC50 [4] was “Not Active”, the IC50 [5] was “Not Active” and the Ki [5] was “Not Active”. The IC50 [7] was “Not Active” and the Ki [7] was “Not Active”.
In the case of `CC(C)(C(=O)O)c1ccc(C(O)CCCN2CCC(C(O)(c3ccccc3)c3ccccc3)CC2)cc1` (centres undefined) [FEXOFENADINE], the IC50 [1] is reported as “Not Active”, the IC50 [2] is reported as “Not Active” and the IC50 [3] is reported as “Not Active”. The IC50 [4] was “Not Active”, the IC50 [5] was “Not Active” and the Ki [5] was “Not Active”. The IC50 ([6]; insect cells) was “Not Active”.
With `CC(=O)OCC(=O)[C@@]12OC(C)(C)O[C@@H]1C[C@H]1[C@@H]3C[C@H](F)C4=CC(=O)C=C[C@]4(C)[C@@]3(F)[C@@H](O)C[C@@]12C` [FLUOCINONIDE] the IC50 [1] was “Not Active”, the IC50 [2] was “Not Active” and the IC50 [3] was “Not Active”. For the same compound, the IC50 [4] was “Not Active”, the IC50 [5] was “Not Active” and the Ki [5] was “Not Active”. For the same compound, the IC50 ([6]; insect cells) was “Not Active”.
With `O=c1c(-c2ccc(O)cc2)coc2cc(O)cc(O)c12` [GENISTEIN] the IC50 [1] was “Not Active”, the IC50 [2] was “Not Active” and the IC50 [3] was “Not Active”. The IC50 [4] was “Not Active”, the IC50 ([5]; read-out: IC50) was 11 µM and the IC50 [7] was “Not Active”. For the same compound, the Ki [7] was “Not Active”.
For `N[C@@H](Cn1ccc(=O)c(O)c1)C(=O)O` [L-MIMOSINE], the IC50 [1] was “Not Active”, the IC50 [2] was “Not Active” and the IC50 [3] was “Not Active”. For the same compound, the IC50 [4] was “Not Active”, the IC50 [5] was “Not Active” and the Ki [5] was “Not Active”. For the same compound, the IC50 ([6]; insect cells) was “Not Active”.
In the case of `C[C@@H]1C/C=C/C=C/C=C/C=C/[C@H](O[C@@H]2O[C@H](C)[C@@H](O)[C@H](N)[C@@H]2O)C[C@@H]2O[C@](O)(C[C@@H](O)C[C@H]3O[C@@H]3/C=C/C(=O)O1)C[C@H](O)[C@H]2C(=O)O` [NATAMYCIN], the IC50 [1] is reported as “Not Active”, the IC50 [2] is reported as “Not Active” and the IC50 [3] is reported as “Not Active”. The IC50 [4] was “Not Active”, the IC50 [5] was “Not Active” and the Ki [5] was “Not Active”. The IC50 ([6]; insect cells) was “Not Active”.
With `COc1ccc2c(c1OC)C(=O)O[C@@H]2[C@H]1c2c(cc3c(c2OC)OCO3)CCN1C` [NOSCAPINE] the IC50 [1] was “Not Active”, the IC50 [2] was “Not Active” and the IC50 [3] was “Not Active”. The IC50 [4] was “Not Active”, the IC50 [5] was “Not Active” and the Ki [5] was “Not Active”. The IC50 ([6]; insect cells) was “Not Active”.
In the case of `NNCCc1ccccc1` [PHENELZINE], the IC50 [1] is reported as “Not Active”, the IC50 [2] is reported as “Not Active” and the IC50 [3] is reported as “Not Active”. For the same compound, the IC50 [4] was “Not Active”, the IC50 [5] was “Not Active” and the Ki [5] was “Not Active”. The IC50 ([6]; insect cells) was “Not Active”.
For `CCN(CC)CCNC(=O)c1ccc(N)cc1` [PROCAINAMIDE], the IC50 [1] was “Not Active”, the IC50 [2] was “Not Active” and the IC50 [3] was “Not Active”. The IC50 [4] was “Not Active”, the IC50 [5] was “Not Active” and the Ki [5] was “Not Active”. For the same compound, the IC50 ([6]; insect cells) was “Not Active”.
In the case of `C[C@]12C=CC(=O)C=C1CC[C@H]1[C@@H]3C[C@@H](O)[C@](O)(C(=O)CO)[C@@]3(C)C[C@H](O)[C@@]12F` [TRIAMCINOLONE], the IC50 [1] is reported as “Not Active”, the IC50 [2] is reported as “Not Active” and the IC50 [3] is reported as “Not Active”. For the same compound, the IC50 [4] was “Not Active”, the IC50 [5] was “Not Active” and the Ki [5] was “Not Active”. The IC50 ([6]; insect cells) was “Not Active”.
